Patent US20240002445A1, “TYROSYL-LOCK PEPTIDES” (The United States of America,as represented by the …, priority 2020, published 2024)
Entries after “also recorded” stand apart in the source; their conditions may differ. Bridge positions count the residues as written; N and C are the ends. Square brackets hold non-standard residues; d marks the D form. Ends that are not written are not given here. Peptide text beside a SMILES is read from it. pGlu = O=C1CC[C@@H](C(=O)O)N1

Tests used:
FL-TDP1 = target: T1, FL-TDP1 (Homo sapiens, UniProt Q9NUW8); experiment: FL-TDP1 FRET assay without TCEP (recifin A and analogues); format: biochemical; settings: for TDP1 inhibitory activity (FRET assay): TCEP omitted; for IC50: IC50 μM (FL-TDP1 inhibitory activity), 1 nM FL-TDP1, 0.25 μM substrate, T=15 min, 1XPBS pH 7.4, 80 mM KCl, -TCEP, high-test concentration 20 μM
T1 construct: either full-length TDP1 or Δ1-147TDP1 was diluted to 1×
Protocol: For these FRET assays, TCEP was omitted from the reaction buffer. Peptides were evaluated for FL-TDP1 inhibitory activity using an 8-pt, 10^0.5 dilution series at a high-test concentration of 20 μM. RXN conditions: 1 nM FL-TDP1, 0.25 μM substrate, T=15 min.; rxn buffer (1XPBS pH 7.4, 80 mM KCl) (-TCEP). See FIGS. 21A and 21B and FIG. 22.

[1] = system: T2, recifin A (native, isolated from the marine sponge Axinella sp.)
T2 sequence: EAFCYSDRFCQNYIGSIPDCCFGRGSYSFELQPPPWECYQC

[2] = target: full-length recombinant human Tyrosyl-DNA phosphodiesterase 1 (TDP1) (human) (UniProt Q9NUW8); experiment: cell-based or functional assay
full-length TDP1 [3] = target: T3, full-length TDP1 (Homo sapiens, UniProt Q9NUW8); experiment: FRET-based TDP1 enzymatic activity inhibition assay, full-length TDP1 (1x TDP1 buffer with TCEP); format: biochemical; set-up: either full-length TDP1 or Δ1-147TDP1 was diluted to 1×; settings: for effect on Vmax of full-length TDP1 / effect on Km of full-length TDP1: steady-state analysis; for effect on Km of full-length TDP1: sub-micromolar concentrations of recifin A
Protocol: (§1) FRET-based TDP1 enzymatic activity inhibition assays were carried out as previously described (Bermingham, et al., SLAS Discov., 2472555217717200 (2017)). Briefly, for Michaelis-Menten analysis, an eight-point FRET substrate concentration response was used (from 0.01-3 μM substrate) in the presence of 0, 0.2, 0.5, 1, and 2 μM recifin A. Quadruplicate reactions were setup in which a 1.25× concentration of either full-length TDP1 or Δ1-147TDP1 was diluted to 1× by the addition of a […] solution of substrate and recifin A to reach a final concentration of 0.5 nM TDP1 (full length or truncated) and the indicated substrate and recifin A concentration in 1× Phosphate Buffered Saline (PBS) pH 7.4, 80 mM potassium chloride, 1 mM TCEP, referred to as “1× TDP1 buffer.” After dilution these reactions were transferred to a black small volume 384-well plate (Greiner Bio-One, Monroe, NC). Fluorescence measurements (excitation: 520 nm, emission: 550 nm) were taken at 30 sec intervals for 1 h using a i3x SpectraMax plate reader (Molecular Devices, Sunnyvale, CA). Reaction progression curves for each condition were examined for linearity over the time course and the reaction rate for each condition was determined by linear regression using GraphPad Prism software (version 8.3.1, San Diego, CA). Reaction rates were replotted in terms of substrate concentration, and kinetic parameters for each recifin A treatment concentration were calculated by non-linear regression (GraphPad Prism) according to the following equation: […]
(§2) For IC50 determinations, a 12-point concentration response curve was prepared over a recifin A concentration range of 0-15 μM. This was accomplished by diluting a 5X stock solution of recifin A and TDP1 FRET substrate into a stock solution of 1.25× TDP1 buffer containing 0.625 nM full-length TDP1 or Δ147TDP1, bringing the final concentration to 1× TDP1 buffer, 0.5 nM enzyme (or a no enzyme control), 1 μM FRET substrate, and 0-15 μM recifin A. Reactions were setup in triplicate using the same plates and plate reader described above for the kinetic measurements. Reaction wells were read at 0 (T0) and 15 (T15) min after initiation. The T15 data was background corrected by subtracting T0 fluorescence measurements. Corrected data was normalized to a control with no enzyme present (0% activity) and a vehicle control (100% activity). Recifin A concentrations were converted to logio-values and normalized data were fitted to the following equation by nonlinear regression (least squares fit with a variable slope) and an IC50 value was calculated using GraphPad Prism software: […]

chymotrypsin = chymotrypsin (Bos taurus, UniProt P00766); settings: native form, 1:20 enzyme to target protein by mass, overnight at room temperature
carboxypeptidase Y = carboxypeptidase Y (Saccharomyces cerevisiae, UniProt P00729); settings: native form, 1:18 enzyme to target protein by mass, 20 minutes at room temperature
[4] = target: pyroglutamate aminopeptidase (Pyrococcus furiosus, UniProt O73944)
full-length TDP1 [5] = target: T3, full-length TDP1; experiment: biochemical
Protocol: (§3) The reactions were carried out in a final volume of 10 μL in 1×LMP 1 reaction buffer (50 mM Tris-HCl, pH 7.5, 80 mM KCl, 2 mM EDTA, 1 mM DTT, 40 μg/mL BSA, 0.01% TWEEN 20) at room temperature for 15 minutes and terminated by adding 10 μ−L of 2×stop buffer (99.5% formamide, 10 mM EDTA, 0.01% methylene blue, 0.01% bromophenol blue).

[6] = target: T4, human TDP1 complemented DT40 knockout whole cell extracts (hTDP1 WCE) (Homo sapiens, UniProt Q9NUW8); experiment: TDP1 inhibition assay with radiolabeled oligonucleotide in whole cell extract; format: biochemical; settings: 2 μg/mL hTDP1 WCE from TDP1-/- DT40 cells complemented with human TDP1
T4 construct: expressed in transfected cells; host or cells: TDP1-/- DT40 (chicken B-lymphocyte) cells complemented with human TDP1; whole cell extract
Protocol: as §3

TDP1 = TDP1 (Homo sapiens, UniProt Q9NUW8); experiment: High-throughput biochemical assay for inhibition of TDP1 enzymatic activity (bioassay-guided fractionation); settings: comparison among peptide constituents of fractions A-D of Axinella sp. aqueous extract
Protocol: The sponge Axinella sp., (Voucher #ID 0CDN7410, NSC #C020686) was harvested at a depth of 40 m at the Thunderbolt reef, south-southwest of Cape Recife Nature Reserve, Port Elizabeth, South Africa. A voucher specimen for this collection is maintained at the Smithsonian Institution (Suitland, MD). Aqueous extracts of Axinella sp. were provided by the Natural Products Branch of the National Cancer Institute and were prepared as previously reported (McCloud, Molecules, 15(7): 4526-63 (2010)). The dried extract was reconstituted in water at a concentration of 10 mg/mL and then subjected to vacuum-assisted chromatography using Bakerbond C4 wide-pore media (Mallinckrodt Baker, Inc., Phillipsburg, NJ). Compounds were eluted using a stepwise methanol gradient of five column volumes (CV) each of 100% water, 40% methanol, 60% methanol and 100% methanol, and the resulting fractions were evaporated under vacuum and then lyophilized to dryness. A high-throughput biochemical assay for inhibition of TDP1 enzymatic activity was utilized to track fraction activity (Bermingham, et al., SLAS Discov., 2472555217717200 (2017)). […]

Δ147TDP1 = target: T5, Δ147TDP1 (Homo sapiens, UniProt Q9NUW8); experiment: FRET-based TDP1 enzymatic activity inhibition assay, N-terminally truncated TDP1; format: biochemical
T5 construct: a truncated catalytic domain of TDP1 lacking the N-terminal regulatory domain (Δ1-147)
Protocol: as §1, §2

trypsin = trypsin (Bos taurus, UniProt P00760); settings: native form, 1:20 enzyme to target protein by mass, overnight at 37° C.
[7] = Stability of recifin A to handling, solvents and RP-HPLC
[8] = target: N-terminal truncated TDP1 (Δ147TDP1) (UniProt Q9NUW8); experiment: cell-based or functional assay
[9] = full-length TDP1, Michaelis-Menten analysis, 0-2 μM recifin A

T3 sequence (Q9NUW8 whole entry): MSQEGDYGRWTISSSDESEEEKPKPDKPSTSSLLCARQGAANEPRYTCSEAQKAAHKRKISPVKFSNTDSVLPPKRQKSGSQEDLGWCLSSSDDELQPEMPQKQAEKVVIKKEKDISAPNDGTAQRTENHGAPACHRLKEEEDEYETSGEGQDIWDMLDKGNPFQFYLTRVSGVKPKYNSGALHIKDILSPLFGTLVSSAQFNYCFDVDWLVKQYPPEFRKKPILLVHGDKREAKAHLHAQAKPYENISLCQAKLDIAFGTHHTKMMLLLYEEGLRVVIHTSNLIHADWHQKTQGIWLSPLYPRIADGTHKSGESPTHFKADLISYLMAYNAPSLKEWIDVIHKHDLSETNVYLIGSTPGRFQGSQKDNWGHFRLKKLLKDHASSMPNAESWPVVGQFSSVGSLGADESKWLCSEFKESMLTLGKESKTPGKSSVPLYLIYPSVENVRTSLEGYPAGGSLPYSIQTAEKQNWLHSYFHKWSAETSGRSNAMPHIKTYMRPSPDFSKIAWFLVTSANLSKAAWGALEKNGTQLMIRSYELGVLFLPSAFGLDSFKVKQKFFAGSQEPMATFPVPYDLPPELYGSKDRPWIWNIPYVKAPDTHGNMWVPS
T1 sequence (Q9NUW8 whole entry): as above
Sequence of full-length recombinant human Tyrosyl-DNA phosphodiesterase 1 (TDP1) (human) (Q9NUW8 whole entry): as above
T5 sequence (Q9NUW8 148-608, stated change not applied): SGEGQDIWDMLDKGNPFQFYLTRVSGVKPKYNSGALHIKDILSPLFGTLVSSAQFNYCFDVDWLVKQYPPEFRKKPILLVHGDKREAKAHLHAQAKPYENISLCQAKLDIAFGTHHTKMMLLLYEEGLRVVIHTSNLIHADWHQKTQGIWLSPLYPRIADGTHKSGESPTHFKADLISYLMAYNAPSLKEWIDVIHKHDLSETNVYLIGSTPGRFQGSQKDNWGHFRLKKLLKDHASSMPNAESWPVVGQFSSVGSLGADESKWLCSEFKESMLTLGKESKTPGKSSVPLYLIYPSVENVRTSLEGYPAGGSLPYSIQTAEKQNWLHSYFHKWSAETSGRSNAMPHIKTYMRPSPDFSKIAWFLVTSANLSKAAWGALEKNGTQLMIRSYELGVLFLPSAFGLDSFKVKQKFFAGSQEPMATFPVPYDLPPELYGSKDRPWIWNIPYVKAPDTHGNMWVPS
Sequence of pyroglutamate aminopeptidase (O73944 whole entry): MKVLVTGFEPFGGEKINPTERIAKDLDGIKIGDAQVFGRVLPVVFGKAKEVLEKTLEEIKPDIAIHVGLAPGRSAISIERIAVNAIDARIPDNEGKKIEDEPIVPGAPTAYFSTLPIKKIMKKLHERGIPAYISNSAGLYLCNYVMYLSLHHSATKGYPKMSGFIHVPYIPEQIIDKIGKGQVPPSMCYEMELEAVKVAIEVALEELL
Sequence of TDP1 (Q9NUW8 whole entry): as the sequence (Q9NUW8 whole entry) above
T4 sequence (Q9NUW8 whole entry): as above
Sequence of carboxypeptidase Y (P00729 112-532, species assumed): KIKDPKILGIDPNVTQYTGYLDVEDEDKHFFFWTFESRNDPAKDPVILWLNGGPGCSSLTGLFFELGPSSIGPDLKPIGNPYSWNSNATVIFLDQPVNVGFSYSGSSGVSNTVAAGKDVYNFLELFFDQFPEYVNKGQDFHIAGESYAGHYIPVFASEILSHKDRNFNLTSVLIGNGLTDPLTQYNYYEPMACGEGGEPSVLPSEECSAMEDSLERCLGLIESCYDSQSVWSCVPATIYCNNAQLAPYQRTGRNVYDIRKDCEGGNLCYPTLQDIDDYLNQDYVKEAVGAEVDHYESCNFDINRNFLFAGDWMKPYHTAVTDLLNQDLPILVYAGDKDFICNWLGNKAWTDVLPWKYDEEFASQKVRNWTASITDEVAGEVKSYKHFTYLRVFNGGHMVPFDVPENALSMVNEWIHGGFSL
Sequence of N-terminal truncated TDP1 (Δ147TDP1) (Q9NUW8 148-608, stated change not applied): as the sequence (Q9NUW8 148-608, stated change not applied) above
Sequence of trypsin (P00760 24-246): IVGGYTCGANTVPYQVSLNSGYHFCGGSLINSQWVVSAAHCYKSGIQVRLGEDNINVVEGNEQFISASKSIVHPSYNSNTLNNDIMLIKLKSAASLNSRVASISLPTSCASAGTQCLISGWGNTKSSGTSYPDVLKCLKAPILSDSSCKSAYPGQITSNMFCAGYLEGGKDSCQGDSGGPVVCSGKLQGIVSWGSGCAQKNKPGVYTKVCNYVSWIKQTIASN

CC[C@H](C)[C@@H]1NC(=O)[C@H](Cc2ccc(O)cc2)NC(=O)[C@H](CC(N)=O)NC(=O)[C@H](CCC(N)=O)NC(=O)[C@@H]2CSSC[C@@H]3NC(=O)[C@H](CCC(=O)O)NC(=O)[C@H](Cc4c[nH]c5ccccc45)NC(=O)[C@@H]4CCCN4C(=O)[C@@H]4CCCN4C(=O)[C@@H]4CCCN4C(=O)[C@H](CCC(N)=O)NC(=O)[C@H](CC(C)C)NC(=O)[C@H](CCC(=O)O)NC(=O)[C@H](Cc4ccccc4)NC(=O)[C@H](CO)NC(=O)[C@H](Cc4ccc(O)cc4)NC(=O)[C@H](CO)NC(=O)CNC(=O)[C@H](CCCNC(=N)N)NC(=O)CNC(=O)[C@H](Cc4ccccc4)NC(=O)[C@H](CSSC[C@@H](C(=O)O)NC(=O)[C@H](CCC(N)=O)NC(=O)[C@H](Cc4ccc(O)cc4)NC3=O)NC(=O)[C@H](CSSC[C@H](NC(=O)[C@H](Cc3ccccc3)NC(=O)[C@H](C)N)C(=O)N[C@@H](Cc3ccc(O)cc3)C(=O)N[C@@H](CO)C(=O)N[C@@H](CC(=O)O)C(=O)N[C@@H](CCCNC(=N)N)C(=O)N[C@@H](Cc3ccccc3)C(=O)N2)NC(=O)[C@H](CC(=O)O)NC(=O)[C@@H]2CCCN2C(=O)[C@H]([C@@H](C)CC)NC(=O)[C@H](CO)NC(=O)CNC1=O [Truncated, Recifin (3-42)] (H-AFCYSDRFCQNYIGSIPDCCFGRGSYSFELQPPPWECYQC-OH; disulfide 3-19, 9-37, 20-40)
TDP1 inhibitory activity (FRET assay) (FL-TDP1): no TDP1 inhibitory activity | IC50 (FL-TDP1): > 10 µM

N-terminal truncated TDP1 (Δ147TDP1)
Km and Vmax of the Δ147TDP1 FRET assay [1]: recifin A had overlapping 95% confidence intervals for both Km and Vmax with the untreated controls, indicating that recifin A does not affect the enzymatic activity of truncated TDP1

Recifin (3-42) (peptide)
IC50 µM, FL-TDP1 FRET inhibition assay without TCEP [2]: > 10 µM

[Ala10] recifin (peptide)
IC50 µM, FL-TDP1 FRET inhibition assay without TCEP [2]: > 10 µM

[Pro1] recifin (peptide)
IC50 µM, FL-TDP1 FRET inhibition assay without TCEP [2]: 0.69 µM

[pGlu]EAFCYSDRFCQNYIGSIPDCCFGRGSYSFELQPPPWECYQC (disulfide 5-21, 11-39, 22-42) [recifin A]
IC50 (full-length TDP1 [3]): 190 nM | increase in Km for the substrate (full-length TDP1 [3]; [9]): approximately 6 fold | increase in observed Vmax (full-length TDP1 [3]; [9]): approximately 1.6 fold | effect on Vmax of full-length TDP1 (full-length TDP1 [3]): modest increase | effect on Km of full-length TDP1 (full-length TDP1 [3]): increased | effect on Km of full-length TDP1 (full-length TDP1 [3]; listed as Recifin A): in-creased | effect on Vmax of full-length TDP1 (full-length TDP1 [3]; listed as Recifin A): in-creased | digestion with chymotrypsin (chymotrypsin): resistant | digestion with carboxypeptidase Y (carboxypeptidase Y): resistant | digestion with pyroglutamate aminopeptidase ([4]; native form, 2 microgram peptide to 0.2 milliunits enzyme, PBS pH 7.4, 24 hour at 37 C): resistant | digestion with pyroglutamate aminopeptidase: N-terminal pyroglutamate residue ([4]; same conditions in phosphate buffer containing 10 mM DTT): fully removed | IC50 (full-length TDP1 [5]): 2400 nM | IC50 (FL-TDP1): 1.63 µM | inhibition of TDP1 processing of the radiolabeled oligonucleotide in whole-cell extract [6]: retained the ability to inhibit | TDP1 inhibitory activity of Axinella sp. peptides/fractions (TDP1): most active | effect on enzymatic activity of truncated TDP1 (Δ147TDP1) (Δ147TDP1; FRET assay, TDP1 lacking N-terminal regulatory domain (Δ1-147)): does not affect the enzymatic activity; also recorded: not affecting the activity | inhibition at 1.5 µM (Δ147TDP1; at the highest concentration (1500 nM), read-out: maximal inhibition of Δ147TDP1): ~20% | effect on Km of Δ147TDP1 (Δ147TDP1; Δ147TDP1 FRET assay): did not affect | effect on Vmax of Δ147TDP1 (Δ147TDP1; Δ147TDP1 FRET assay): did not affect | digestion with trypsin (trypsin): resistant | activity after processing ([7]; DTP extract preparation, drying under nitrogen gas at room temperature, freezing at -20° C., -80° C. and on dry ice, lyophilization, freezing and thawing): still active | stability during RP-HPLC procedures ([7]; room temperature and 40° C., with and without 0.05% v/v TFA (pH approx. 2)): stable | stability in solvents and buffers ([7]; water, PBS pH 7.4, Tris HCl pH 8.0, methanol, acetonitrile, DMSO): stable

[pGlu]EAFCYSDRFCQNYIGSIPDCCFGRGSYSFELQPPPWECYQC-OH (disulfide 5-21, 11-39, 22-42) [Synthetic, Recifin]
TDP1 inhibitory activity (FRET assay) (FL-TDP1): have TDP1 inhibitory activity | IC50 (FL-TDP1): 0.5 µM

full-length recombinant human Tyrosyl-DNA phosphodiesterase 1 (TDP1)
effect on the observed Vmax, FRET steady-state kinetics [1]: approximately 1.6-fold higher | recifin A-dependent increase in the Km for the substrate, FRET steady-state kinetics [1]: approximately 6-fold higher

recifin A (native, isolated from the marine sponge Axinella sp.) (peptide)
maximal inhibition of enzymatic activity, FRET assay [8]: 20% | IC50 µM, FL-TDP1 FRET inhibition assay without TCEP [2]: 1.63 µM | IC50, inhibition of TDP1 cleavage of a 5'-radiolabeled oligonucleotide DNA substrate containing a 3'-phosphotyrosyl residue (gel assay) [2]: 2400 nM | apparent IC50, FRET-based TDP1 enzymatic activity inhibition assay [2]: 190 nM

synthetic recifin A (peptide)
IC50 µM, FL-TDP1 FRET inhibition assay without TCEP [2]: 0.5 µM
